Assay results taken from article PMC12363342, “Investigating the N-terminal linker histone H1 subtypes as substrates for JmjC lysine demethylases” (RSC Chemical Biology, 2025).
Square brackets hold non-standard residues; d marks the D form. Ends that are not written are not given here. Lys(Me3) = C[N+](C)(C)CCCC[C@H](N)C(=O)O

Tests used:
KDM4E = biological target: T1, KDM4E (Homo sapiens, UniProt B2RXH2); assay: formaldehyde dehydrogenase (FDH)-coupled demethylation assay, KDM4E; type: biochemical; conditions: KDM4E (400 nM); for substrate inhibition in Michaelis-Menten kinetics (KDM4E): FDH-coupled assay, Fig. S25; for Km / kcat (KDM4E) / kcat/KM (KDM4E): FDH-coupled fluorescence assay, peptide 1–50 μM, HEPES pH 7.5; for Km / kcat (KDM4E): FAS 20 μM, LAA 200 μM, 2OG 200 μM, NAD+ 500 μM, FDH 2.0 μM, mean ± SEM (n = 3); for kcat/KM (KDM4E): catalytic efficiency
T1 construct: KDM4DM1-L359,[39]; KDM4EM1-R336,[30]; His6 (N); made in house; host or cells: Escherichia coli
T1 sequence (B2RXH2 1-336): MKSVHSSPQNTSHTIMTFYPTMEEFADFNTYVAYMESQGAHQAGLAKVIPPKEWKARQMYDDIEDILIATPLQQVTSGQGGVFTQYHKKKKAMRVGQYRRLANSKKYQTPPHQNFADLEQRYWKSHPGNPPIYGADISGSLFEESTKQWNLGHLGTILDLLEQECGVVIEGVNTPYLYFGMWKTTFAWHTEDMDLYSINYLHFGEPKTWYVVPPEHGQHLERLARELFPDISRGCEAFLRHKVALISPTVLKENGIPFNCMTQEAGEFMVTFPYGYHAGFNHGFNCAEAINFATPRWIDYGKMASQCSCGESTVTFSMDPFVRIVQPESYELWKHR
Experimental: Kinetic parameters were determined by recording the initial reaction rates of NADH production at varying histone peptide concentrations (Fig. S24 and S25).
(§1) Kinetic parameters for demethylation of N^ε-trimethylated H1 peptides by KDM4D and KDM4E (400 nM) measured using a formaldehyde dehydrogenase-coupled demethylation assay. H1 peptide (1–50 μM), FAS (20 μM), LAA (200 μM), 2OG (200 μM), NAD^+ (500 μM), KDM4 enzyme (0.8 μM) and FDH (2.0 μM) in HEPES buffer at pH 7.5.
(§2) Substrate Km values for KDM4 enzymes were determined using a reported formaldehyde dehydrogenase/NAD coupled enzyme assay that quantifies formaldehyde production.[30] In brief, DNA encoding for wild-type full-length formaldehyde dehydrogenase was synthesised (by GenScript) and cloned into the pET-28B vector. The resultant plasmid was then transformed into the Rosetta strain of Escherichia coli. Coupled enzyme-assays were carried out in black polystyrene 384-well non-binding surface microplates (Corning) and kinetic measurements were obtained using a PHERAstar FS plate reader (BMG Labtech) equipped with a 350 nm excitation and 460 nm emission optic module.[30] All steps were performed in the assay buffer (50 mM HEPES pH 7.5, 0.01% (v/v) Tween-20). Substrate mixtures were prepared freshly and contained FAS (20 μM), LAA (200 μM), 2OG (200 μM), NAD^+ (500 μM), and H1 peptide (1–50 μM); they were dispensed (25 μL final volume) in triplicate. Assays were initiated by plate reader injection of 25 μL of a mixture of KDM4 (0.8 μM) and formaldehyde dehydrogenase (FDH) (2.0 μM) in assay buffer (50 mM HEPES pH 7.5, 0.01% (v/v) Tween-20). Production of NADH was measured at 60 second intervals over 25 cycles. Kinetic parameters were determined from the reaction rate during the initial linear phase of formaldehyde production, and specific activities were calculated from a formaldehyde standard curve and fitted to the Michaelis–Menten equation using GraphPad Prism Version 5.0 (GraphPad software, La Jolla, CA, USA). Each assay was carried out in triplicate with independently prepared reaction mixtures.

KDM4D = biological target: T2, KDM4D (Homo sapiens, UniProt Q6B0I6); assay: formaldehyde dehydrogenase (FDH)-coupled demethylation assay, KDM4D; type: biochemical; conditions: FDH-coupled fluorescence assay, KDM4D (400 nM), H1 peptide 1–50 μM, HEPES pH 7.5; for Km / kcat (KDM4D): FAS 20 μM, LAA 200 μM, 2OG 200 μM, NAD+ 500 μM, FDH 2.0 μM, mean ± SEM (n = 3); for kcat/KM (KDM4D): catalytic efficiency
T2 construct: KDM4AM1-L359,[38]; KDM4DM1-L359,[39]; KDM4EM1-R336,[30]; His6 (N); made in house; host or cells: Escherichia coli
T2 sequence (Q6B0I6 1-359): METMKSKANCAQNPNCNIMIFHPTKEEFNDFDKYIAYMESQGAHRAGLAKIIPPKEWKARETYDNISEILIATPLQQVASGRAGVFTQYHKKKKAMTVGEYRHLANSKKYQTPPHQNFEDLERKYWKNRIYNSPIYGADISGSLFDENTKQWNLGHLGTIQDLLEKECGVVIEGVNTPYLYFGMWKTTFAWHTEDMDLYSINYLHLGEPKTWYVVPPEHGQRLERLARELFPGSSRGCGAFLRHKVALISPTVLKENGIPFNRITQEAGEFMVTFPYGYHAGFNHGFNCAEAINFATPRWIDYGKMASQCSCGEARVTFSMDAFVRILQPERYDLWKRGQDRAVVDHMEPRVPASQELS
Experimental: Kinetic parameters were determined by recording the initial reaction rates of NADH production at varying histone peptide concentrations (Fig. S24 and S25). The overall catalytic efficiencies (as measured by kcat/KM) gave the following rank orders for KDM4D: H1.5K26me3 (0.192 μM^−1 min^−1) > H1.3K24me3 (0.066 μM^−1 min^−1) ≈ H1.2K26me3 (0.063 μM^−1 min^−1) > H1.4K25me3 (0.044 μM^−1 min^−1). […] These rank orders differ somewhat from the initial screening results. However, given the complexities of 2OG oxygenase catalysis and the relatively low catalytic efficiencies observed, such apparent discrepancies are not unexpected.[28] It is also noteworthy that, in some instances, increased KM values correlate with elevated kcat values, resulting in similar kcat/KM ratios, particularly for H1.4K25me3 with KDM4D and H1.2K25me3 with KDM4E.
as §1, with “7.5. Each value is shown as mean ± SEM (n = 3)” for “7.5.”
as §2

Row | Substance | substrate inhibition in Michaelis-Menten kinetics (KDM4E) (KDM4E) | Km (KDM4E) [µM] | kcat (KDM4E) (KDM4E) [s⁻¹] | kcat/KM (KDM4E) (KDM4E) [M⁻¹ s⁻¹] | Km (KDM4D) [µM] | kcat (KDM4D) (KDM4D) [s⁻¹] | kcat/KM (KDM4D) (KDM4D) [M⁻¹ s⁻¹]
1 | KKKAA[Lys(Me3)]KAGGTPRKA [Peptide H1.2K25me3, 15-mer linker histone H1.2 residues 20-34 peptide, tri-methylated K25] | evidence for substrate inhibition | 18.5 ± 6.87 | 0.0767 ± 0.0218 | 4120 | – | – | –
2 | KKKA[Lys(Me3)]KAGATAGKRK [Peptide H1.3K24me3, 15-mer linker histone H1.3 residues 20-34 peptide, tri-methylated K24] | – | 6.45 ± 1.51 | 0.0333 ± 0.00417 | 5170 | 5.93 ± 0.69 | 0.0065 ± 0.00033 | 1100
3 | KKKAR[Lys(Me3)]SAGAAKRKA [Peptide H1.4K25me3, 15-mer linker histone H1.4 residues 20-34 peptide, tri-methylated K25] | evidence for substrate inhibition | 11.5 ± 3.19 | 0.0435 ± 0.00783 | 3770 | 60 ± 24.3 | 0.0443 ± 0.0152 | 733
4 | KKKAAK[Lys(Me3)]AGGTPRKA [Peptide H1.2K26me3, 15-mer linker histone H1.2 residues 20-34 peptide, tri-methylated K26] | – | 5.22 ± 0.54 | 0.0313 ± 0.0015 | 6000 | 4.6 ± 0.41 | 0.00483 ± 0.00017 | 1050
5 | KKKATK[Lys(Me3)]AAGAGAAK [Peptide H1.5K26me3, 15-mer linker histone H1.5 residues 20-34 peptide, tri-methylated K26] | – | 4.04 ± 0.51 | 0.0218 ± 0.0013 | 5400 | 7.51 ± 0.77 | 0.024 ± 0.0013 | 3200
